This series can be described thus: physchem. To be noted: pH 7.4 buffer.

The results in this text go back to ChEMBL document CHEMBL3301361, “Experimental in vitro DMPK and physicochemical data on a set of publicly disclosed compounds”.

≈ marks a conversion by molar mass, not a printed value.

With `N=C(N)c1ccc2cc(C(=O)Nc3ccc(CN)cc3)cc(Nc3ncccn3)c2c1`, the thermodynamic solubility (commonly the concentration in solution at equilibrium with solid) turned out to be 151 µM (≈ 62.3 µg/mL). For `CCn1cnc(-c2ccccc2)c1-c1nc2c(N)ncnc2s1`, the thermodynamic solubility stood at 170 µM (≈ 54.7 µg/mL). With `CSc1nc(N)n2nc(-c3ccco3)nc2n1` the figure was 151 µM (≈ 37.6 µg/mL); with `O=C(NNC(=O)c1ccccc1)c1ccccc1`, 182 µM (≈ 43.7 µg/mL); with `O=C(c1ccc(F)cc1)C1CCN(C(=O)c2ccccc2)CC1`, 200 µM (≈ 62.1 µg/mL). In the case of `N#Cc1ccccc1C(=O)N1CCC(C(=O)c2ccc(F)cc2)CC1` it was 135 µM (≈ 45.4 µg/mL); in that of `Nc1nccc(/C=C/c2ccccc2)n1`, 190 µM (≈ 37.6 µg/mL). In the case of `Nc1ccc2c(c1)cc(C(=O)O)n2Cc1ccc(Cl)c(Cl)c1` it was 347 µM (≈ 116 µg/mL); in that of `Nc1nnc(-c2ccccc2F)s1`, 316 µM (≈ 61.7 µg/mL).

Consider `COc1ccc(NC(=O)c2cc(C)no2)cc1`, for which the thermodynamic solubility worked out at 158 µM (≈ 36.8 µg/mL).

With `Cc1ccccc1C(=O)Nc1ccccc1`, the solubility (thermodynamic) was found to be 186 µM (≈ 39.3 µg/mL). In the case of `O=C(O)c1cc2ccc(F)cc2n1Cc1ccc(Cl)c(Cl)c1` it was 182 µM (≈ 61.5 µg/mL).

The molecule `O=C(NNc1nc2ccccc2o1)c1ccccc1` showed a solubility (thermodynamic) of 129 µM (≈ 32.6 µg/mL). In the case of `COc1ccc(Cc2nnc(N)s2)cc1` it was 363 µM (≈ 80.3 µg/mL); in that of `CNC(=O)[C@@H](NC(=O)[C@H](CC(C)C)[C@H](OCc1cc2ccccc2n(C)c1=O)C(=O)NO)C(C)(C)C`, 269 µM (≈ 135 µg/mL). With `Cc1cnc(NC(=O)c2ccccn2)s1` the figure was 200 µM (≈ 43.7 µg/mL).

With `O=C(NC1CCN(C(=O)c2cccs2)CC1)c1ccccc1`, the thermodynamic solubility amounted to 166 µM (≈ 52.2 µg/mL).

Molecule `Cc1ccccc1C(=O)NC1CCN(Cc2ccccc2)CC1` had a thermodynamic solubility of 246 µM (≈ 75.7 µg/mL). In the case of `CC(C)Cn1c2ccccc2c2cc(C(=O)O)ccc21` it was 219 µM (≈ 58.5 µg/mL). In the case of `Cc1ccc(-c2cn3cccnc3n2)cc1` it was 251 µM (≈ 52.6 µg/mL); in that of `O=C(Nc1ccccc1)N1CCN(c2ccccn2)CC1`, 170 µM (≈ 47.9 µg/mL).

`O=C(Nc1ccccc1C(F)(F)F)N1CCN(c2ccccn2)CC1`: the thermodynamic solubility was determined as 190 µM (≈ 66.7 µg/mL).

For `CCC(C)(C)NC(=O)Cc1ccc(C)cc1`, the thermodynamic solubility stood at 240 µM (≈ 52.6 µg/mL). With `CC(C)(C)C(O)C(Cc1ccccc1Cl)n1cncn1` (configuration not stated) the figure was 398 µM (≈ 117 µg/mL); with `COc1ccc(C(=O)Nc2nccs2)cc1OC`, 132 µM (≈ 34.8 µg/mL). With `Oc1ncnc2c1cnn2Cc1ccccc1` the figure was 158 µM (≈ 35.9 µg/mL). The molecule `O=S(=O)(NCc1ccccc1)c1cccc2nonc12` displayed a thermodynamic solubility of 141 µM (≈ 40.9 µg/mL). In the case of `CNC(=O)N1c2ccccc2C=Cc2ccccc21` it was 380 µM (≈ 95.2 µg/mL); in that of `O=C(NCc1ccccc1)c1ccc(=O)oc1`, 135 µM (≈ 30.9 µg/mL); in that of `COCC(C)(C)Oc1cc(O[C@@H](C)Cc2ccccc2)cc(C(=O)Nc2ccc(C(=O)O)cn2)c1`, 190 µM (≈ 91.2 µg/mL). With `N#Cc1ccccc1COc1cc(OCCCN2CCCC2)ccc1C(=O)Nc1cccc(O)c1` the figure was 363 µM (≈ 171 µg/mL); with `O=C(Nc1cccnc1)c1ccc(OCCCN2CCCC2)cc1OCc1ccccc1`, 209 µM (≈ 90.1 µg/mL); with `Nc1c2c(O)nc(O)cc2nn1-c1ccccc1`, 178 µM (≈ 43.1 µg/mL). In the case of `Oc1ncnc2c1nnn2Cc1ccccc1` it was 209 µM (≈ 47.5 µg/mL); in that of `COc1cccc(NC(=O)Cn2cc(Oc3ncnc4cc(OC)c(OCCN5CCCCC5)cc34)cn2)c1`, 141 µM (≈ 75.3 µg/mL).

`COc1ccc(CNC(=O)c2ccc(Oc3ccc(C#C[C@]4(O)CN5CCC4CC5)cc3)cc2)nc1` had a thermodynamic solubility of 347 µM (≈ 168 µg/mL).

As for `CC[C@@H](C)NC(=O)c1ccc(Oc2ccc(C#C[C@]3(O)CN4CCC3CC4)cc2)cc1`, the thermodynamic solubility worked out at 112 µM (≈ 47 µg/mL). In the case of `CCN(C(=O)Cc1ccc(S(C)(=O)=O)cc1)C1CCN(CCC(c2ccccc2)N2CCN(c3cccc(F)c3)CC2)CC1` (configuration not stated) it was 144 µM (≈ 89.7 µg/mL); in that of `COc1ccc(Cl)c(Nc2ncnc3cc(OCCCN4CCN(C)CC4)cc(OC(C)C)c23)n1`, 347 µM (≈ 174 µg/mL).

`CN(C(=O)Cc1ccc(-n2cnnn2)cc1)C1CCN(Cc2ccc(C(F)(F)F)nc2)CC1` returned a solubility (thermodynamic) of 182 µM (≈ 83.6 µg/mL). `CO[C@H]1CN(Cc2ccc(C(F)(F)F)cc2)CC[C@H]1N(C)C(=O)Cc1ccc(-n2cnnn2)cc1` showed a thermodynamic solubility of 263 µM (≈ 128 µg/mL). With `C[C@H]1COCCN1c1cc(CS(C)(=O)=O)nc(-c2ccc3[nH]ccc3c2)n1` the figure was 190 µM (≈ 73.6 µg/mL); with `O=C(N[C@@H](Cc1ccc(OCCc2cccc(NC3CCCC3)n2)cc1)C(=O)O)c1c(Cl)cccc1Cl`, 295 µM (≈ 160 µg/mL); with `O=C(O)Cc1cccc(-c2ccc(NC(=O)c3nnc(Nc4ccccc4F)o3)cc2)c1`, 257 µM (≈ 111 µg/mL). In the case of `O=C(Nc1ccc(Cl)c(Cl)c1)N1CCN(C[C@@H]2CCCN(CCCc3ccccc3)C2)CC1` it was 144 µM (≈ 70.7 µg/mL); in that of `CNc1nc2ccc(NC(C)=O)cc2s1`, 347 µM (≈ 76.7 µg/mL).

Take `CC(C)(C)c1csc(N2CCN(C(=O)[C@@H]3CCCC[C@H]3C(=O)NC3(C#N)CC3)CC2)n1`: the thermodynamic solubility came to 282 µM (≈ 125 µg/mL). With `Cc1csc(NC(=O)c2ccccc2)n1` the figure was 331 µM (≈ 72.3 µg/mL); with `O=C(Cc1ccccc1)Nc1ccccc1O`, 246 µM (≈ 55.8 µg/mL); with `COc1ccccc1C[C@@H](C(=O)O)N1CCC(CN2CCC(Oc3ccc(Cl)c(Cl)c3)CC2)CC1`, 263 µM (≈ 137 µg/mL). Molecule `Cc1cc(OC2CCN(CC3CCN([C@@](C)(Cc4ccc(F)cc4)C(=O)O)CC3)CC2)ccc1Cl` showed a solubility (thermodynamic) of 204 µM (≈ 103 µg/mL). In the case of `N#CC1(NC(=O)[C@@H]2CCCC[C@H]2C(=O)N2CCc3[nH]c4c(C(F)(F)F)cccc4c3C2)CC1` it was 144 µM (≈ 66.3 µg/mL). For `N#CC1(NC(=O)[C@@H]2CCCC[C@H]2C(=O)N2CCc3[nH]c4c(OC(F)(F)F)cccc4c3C2)CC1`, the thermodynamic solubility was 123 µM (≈ 58.4 µg/mL). In the case of `CCOc1cccc2c3c([nH]c12)CCN(C(=O)[C@@H]1CCCC[C@H]1C(=O)NC1(C#N)CC1)C3` it was 302 µM (≈ 131 µg/mL); in that of `N#CC1(NC(=O)[C@@H]2CCCC[C@H]2C(=O)N2CCc3[nH]c4ccc(Cl)cc4c3C2)CC1`, 129 µM (≈ 54.7 µg/mL); in that of `COc1ccc(N2CCN(C(=O)[C@@H]3CCCC[C@H]3C(=O)NCC#N)CC2)cc1`, 389 µM (≈ 150 µg/mL).

`CS(=O)(=O)c1ccc(N2CCN(C(=O)[C@@H]3CCCC[C@H]3C(=O)NCC#N)CC2)cc1` yielded a thermodynamic solubility of 275 µM (≈ 119 µg/mL). With `COc1cc(N2CCN(C(=O)[C@@H]3CCCC[C@H]3C(=O)NC3(C#N)CC3)[C@H](C)C2)ccc1C1CC1` the figure was 204 µM (≈ 94.9 µg/mL). Turning to `CC(C)c1c(C(=O)NC2C3CC4CC(C3)CC2C4)cnn1-c1ccc(C(=O)O)cc1` (configuration not stated), the solubility (thermodynamic) was determined as 224 µM (≈ 91.2 µg/mL). `CC(=O)N1CCN(CCOc2ccc(C3(O)CCN(c4ccc5nnc(C(F)(F)F)n5n4)CC3)cc2)CC1` had a solubility (thermodynamic) of 170 µM (≈ 90.6 µg/mL). With `Nc1ccccc1NC(=O)c1ccc(N2CCOCC2)cc1` the figure was 182 µM (≈ 54.1 µg/mL); with `COc1cc2c(Nc3ccc(Br)cc3F)ncnc2cc1OC/C=C/CN1CCCC1`, 240 µM (≈ 117 µg/mL); with `COc1cc2c(Nc3cc(CC(=O)Nc4cc(F)cc(F)c4)[nH]n3)ncnc2cc1OCCCN1CCC(CO)CC1`, 214 µM (≈ 124 µg/mL). With `c1ccc(Nc2ncnc3ccccc23)cc1` the figure was 132 µM (≈ 29.2 µg/mL); with `COc1cc2cc(O)nc(C)c2cc1OC`, 209 µM (≈ 45.8 µg/mL). The molecule `COc1cc2ncnc(Nc3cc(NC(=O)c4ccnc(N5CCOCC5)c4)ccc3C)c2cc1OCCN(C(C)C)C(C)C` displayed a thermodynamic solubility of 240 µM (≈ 147 µg/mL). `COc1ccc(Cn2c(CCc3c[nH]c4ccccc34)nnc2[C@@H](Cc2c[nH]c3ccccc23)NC(=O)C(C)(C)N)cc1` came in with a thermodynamic solubility of 182 µM (≈ 105 µg/mL). With `COc1cc2c(Nc3ncc(CNS(=O)(=O)c4cccc(F)c4)s3)ncnc2cc1OCCCN1CCC(CO)CC1` the figure was 302 µM (≈ 186 µg/mL). With `COCCN(Cc1cc2c(Nc3cccc(Cl)c3F)ncnc2cc1OC)[C@@H](C)C(N)=O` the figure was 166 µM (≈ 76.7 µg/mL); with `CNC(=O)[C@H]1CCCN1Cc1cc2c(Nc3cccc(Cl)c3F)ncnc2cc1OC`, 282 µM (≈ 125 µg/mL). In turn, `COc1cc2c(Nc3cc(CC(=O)Nc4cccc(F)c4)[nH]n3)ncnc2cc1OCCCNCCO` returned a thermodynamic solubility of 219 µM (≈ 111 µg/mL).

`Cc1cc(C)c(C(=O)N[C@@H](CNC(=O)CO[C@@H]2C[C@@H](CNc3ccccn3)N(C(=O)OCc3ccccc3)C2)C(=O)O)c(C)c1` yielded a solubility (thermodynamic) of 389 µM (≈ 240 µg/mL).

With `CC(=O)N1CCN(CC(O)CN2CCN(CCc3c(-c4cc(C)cc(C)c4)[nH]c4sc(C(C)(C)C(=O)N5C6CCC5CC6)cc34)CC2)CC1` (configuration not stated), the thermodynamic solubility worked out at 214 µM (≈ 147 µg/mL). In the case of `C[C@H](Oc1cccc2ncnc(Nc3ccc4c(cnn4Cc4ccccn4)c3)c12)C(=O)N1CCOCC1` it was 166 µM (≈ 84.6 µg/mL); in that of `O=C(O)c1cc2cc(F)ccc2n1Cc1ccc(Cl)c(Cl)c1`, 209 µM (≈ 70.6 µg/mL); in that of `COc1cc2c(Nc3cc(CC(=O)Nc4cccc(F)c4)[nH]n3)ncnc2cc1OCCCN1CCC[C@@H]1CO`, 162 µM (≈ 89.1 µg/mL). In the case of `COCCNS(=O)(=O)c1ccc(Nc2nccc(-c3c(C)nc(C)n3C)n2)cc1` it was 219 µM (≈ 91.1 µg/mL); in that of `CC(=O)NC1CN(c2ccc(Nc3ncc(F)c(-c4cnc(C)n4C(C)C)n3)cc2)C1`, 120 µM (≈ 50.9 µg/mL); in that of `Cc1ncc(-c2nc(Nc3ccc(N4CCN(C(=O)CO)CC4)cc3)ncc2F)n1C(C)C`, 158 µM (≈ 71.9 µg/mL). As for `COCCNS(=O)(=O)c1ccc(Nc2nccc(-c3cnc(C)n3C(C)C)n2)cc1`, the thermodynamic solubility came out at 363 µM (≈ 156 µg/mL). With `CCN(CC)C(=O)C(C)(C)c1ccc2[nH]c(-c3cc(C)cc(C)c3)c(CCNCCCCc3ccncc3)c2c1` the figure was 141 µM (≈ 76.1 µg/mL); with `N=C1S/C(=C/c2ccco2)C(=O)N1c1nccs1`, 182 µM (≈ 50.5 µg/mL); with `Nc1nccc(/C=C/c2c(Cl)nc3sccn23)n1`, 324 µM (≈ 89.9 µg/mL).

Consider `Cc1ncc(-c2nc(Nc3ccc(N4CCOCC4)cc3)ncc2F)n1C(C)C`, for which the thermodynamic solubility stood at 118 µM (≈ 46.6 µg/mL).

Molecule `CN(C)CCCNS(=O)(=O)c1ccc(Nc2nccc(-c3cnc4cccnn34)n2)cc1` gave a thermodynamic solubility of 158 µM (≈ 71.7 µg/mL). In the case of `O=C(Nc1nccs1)[C@H](CC1CCOCC1)c1ccc(S(=O)(=O)C2CC2)cc1` it was 295 µM (≈ 124 µg/mL); in that of `CN(C)CCCN(C)S(=O)(=O)c1ccc(Nc2nccc(-c3cnc4ccccn34)n2)cc1`, 309 µM (≈ 144 µg/mL).
